Laboratory results reported in patent US20260265538A1, “Aqueous Industrial Product Stabilized Against Microbial Contamination” (Thor GmbH, priority 2023, published 2026).

Test system: Bacteria mixture 2 (alkaliphilic bacteria of the Nesterenkonia & Alkalibacterium genus)
Test: Repetitive stress test of paints with bacteria mixture 2, semiquantitative evaluation (examples 4 and 5)
Assay type: cell-based
Set-up: key to Bacterial growth after inoculation: 0: No growth; Minimal growth, 1 to 10 colonies visible over the entire streak; 2: Light growth, maximum 100 colonies; Moderate growth, maximum 300 to 400 colonies; Uniform growth, >400 colonies, single colonies still clearly recognizable; 5: Heavy growth, too many colonies to count, but no growth over the entire streak; 6: Full growth, barely any single colonies still apparent, growth over the entire streak
Details: Table 4
From the text: Paints 1 to 3 were mixed and homogenized with various concentrations of the guanidinium salts to be tested.
The batches obtained of the paint thus prepared were inoculated repeatedly with a mixture of different wild-type bacterial strains that are of practical relevance with regard to contamination. These bacteria had previously been isolated from commercial emulsion paints containing conventional preservatives (bacteria mixture 1, Pseudomonas genus), which are microbially contaminated in practice, and commercial so-called preservative-free alkaline emulsion paints (bacteria mixture 2, alkaliphilic bacteria of the Nesterenkonia & Alkalibacterium genus), which are microbially contaminated in practice.
• Nesterenkonia sp. DSM 108520 • Nesterenkonia sp. DSM 108521 • Alkalibacterium pelagium DSM 108522 • Nesterenkonia massiliensis DSM 110679 • Nesterenkonia sp. DSM 108519
The inoculum was added to the respective sample in each inoculation at 2% (v/w) as a fresh cell suspension in a physiological saline solution (0.9% NaCl). The cell count of the added inoculum in example 1 was 10^5/ml, in examples 2 to 5 10^9/ml, and in example 6 10^6/ml, each in equal portions consisting of the individual bacterial strains. The cell suspension was produced by growing the individual bacteria at 30° C. for 24 h in liquid culture on a shaker. The medium used to grow the bacteria from bacteria mixture 1 was Müller-Hinton liquid medium. Bacteria from bacteria mixture 2 were grown in Müller-Hinton liquid medium that had been adjusted to pH 9.5-9.7 with an alkaline buffer solution beforehand. After growing, the individual liquid cultures were centrifuged, and the cells were resuspended in physiological saline solution. In order to adjust the mixture to the desired cell count, the individual bacteria suspensions, if necessary, were diluted accordingly before being combined with saline solution. The cell count of the inoculum was determined in each case by chamber counting.
In examples 2 to 6, what is called a repetitive stress test with bacteria was conducted by inoculating the samples at particular time intervals repeatedly with a bacteria suspension having a cell count of 10^9/ml (2% v/w) and monitoring the evolution of the bacteria by a semiquantitative evaluation method. After each inoculation, the samples were incubated at 30° C. for 6 days (bacteria mixture 1 and 3) or 7 and 14 days (bacteria mixture 2), and after these periods bacterial infestation was evaluated semiquantitatively in each case. For this purpose, an aliquot was taken from each sample after homogenization using a sterile plastic inoculation loop (10 μl) and streaked evenly on agar plates (bacteria mixture 1 and 3 on tryptic soy agar, bacteria mixture 2 on DSMZ 31 alkaline nutrient agar). The streaked agar plates were then incubated at 30° C. for 48 h (bacteria mixture 1 and 3) or 5 to 7 days (bacteria mixture 2). After incubation, the bacterial colonies grown on the agar plates were visually evaluated and quantified according to the following scheme:
A total of 3 inoculation cycles was performed in each repetitive stress test.
Inoculation 2% (w/v) with Bacteria Mixture 2, 10^9 CFU/ml

N=C(N)N.N=C(N)N.O=C(O)O [guanidine carbonate]
Bacterial growth after inoculation (Paint 1, +0.1% guanidine carbonate (656 ppm guanidine), pH 9.1, 1. inoculation, 7 d): 0/0 | Bacterial growth after inoculation (Paint 1, +0.1% guanidine carbonate (656 ppm guanidine), pH 9.1, 1. inoculation, 14 d): 0/0 | Bacterial growth after inoculation (Paint 1, +0.1% guanidine carbonate (656 ppm guanidine), pH 9.1, 2. inoculation, 7 d): 0/0 | Bacterial growth after inoculation (Paint 1, +0.1% guanidine carbonate (656 ppm guanidine), pH 9.1, 2. inoculation, 14 d): 0/0 | Bacterial growth after inoculation (Paint 1, +0.1% guanidine carbonate (656 ppm guanidine), pH 9.1, 3. inoculation, 7 d): 6/6 | Bacterial growth after inoculation (Paint 1, +0.1% guanidine carbonate (656 ppm guanidine), pH 9.1, 3. inoculation, 14 d): 6/6 | Bacterial growth after inoculation (Paint 1, +0.15% guanidine carbonate (984 ppm guanidine), pH 9.4, 1. inoculation, 7 d): 0/0 | Bacterial growth after inoculation (Paint 1, +0.15% guanidine carbonate (984 ppm guanidine), pH 9.4, 1. inoculation, 14 d): 0/0 | Bacterial growth after inoculation (Paint 1, +0.15% guanidine carbonate (984 ppm guanidine), pH 9.4, 2. inoculation, 7 d): 0/0 | Bacterial growth after inoculation (Paint 1, +0.15% guanidine carbonate (984 ppm guanidine), pH 9.4, 2. inoculation, 14 d): 0/0 | Bacterial growth after inoculation (Paint 1, +0.15% guanidine carbonate (984 ppm guanidine), pH 9.4, 3. inoculation, 7 d): 0/0 | Bacterial growth after inoculation (Paint 1, +0.15% guanidine carbonate (984 ppm guanidine), pH 9.4, 3. inoculation, 14 d): 0/0 | Bacterial growth after inoculation (Paint 1, +0.2% guanidine carbonate (1312 ppm guanidine), pH 9.6, 1. inoculation, 7 d): 0/0 | Bacterial growth after inoculation (Paint 1, +0.2% guanidine carbonate (1312 ppm guanidine), pH 9.6, 1. inoculation, 14 d): 0/0 | Bacterial growth after inoculation (Paint 1, +0.2% guanidine carbonate (1312 ppm guanidine), pH 9.6, 2. inoculation, 7 d): 0/0 | Bacterial growth after inoculation (Paint 1, +0.2% guanidine carbonate (1312 ppm guanidine), pH 9.6, 2. inoculation, 14 d): 0/0 | Bacterial growth after inoculation (Paint 1, +0.2% guanidine carbonate (1312 ppm guanidine), pH 9.6, 3. inoculation, 7 d): 0/0 | Bacterial growth after inoculation (Paint 1, +0.2% guanidine carbonate (1312 ppm guanidine), pH 9.6, 3. inoculation, 14 d): 0/0 | Bacterial growth after inoculation (Paint 1, +0.25% guanidine carbonate (1640 ppm guanidine), pH 9.7, 1. inoculation, 7 d): 0/0 | Bacterial growth after inoculation (Paint 1, +0.25% guanidine carbonate (1640 ppm guanidine), pH 9.7, 1. inoculation, 14 d): 0/0 | Bacterial growth after inoculation (Paint 1, +0.25% guanidine carbonate (1640 ppm guanidine), pH 9.7, 2. inoculation, 7 d): 0/0 | Bacterial growth after inoculation (Paint 1, +0.25% guanidine carbonate (1640 ppm guanidine), pH 9.7, 2. inoculation, 14 d): 0/0 | Bacterial growth after inoculation (Paint 1, +0.25% guanidine carbonate (1640 ppm guanidine), pH 9.7, 3. inoculation, 7 d): 0/0 | Bacterial growth after inoculation (Paint 1, +0.25% guanidine carbonate (1640 ppm guanidine), pH 9.7, 3. inoculation, 14 d): 0/0 | Bacterial growth after inoculation (Paint 1, +0.3% guanidine carbonate (1968 ppm guanidine), pH 9.7, 1. inoculation, 7 d): 0/0 | Bacterial growth after inoculation (Paint 1, +0.3% guanidine carbonate (1968 ppm guanidine), pH 9.7, 1. inoculation, 14 d): 0/0 | Bacterial growth after inoculation (Paint 1, +0.3% guanidine carbonate (1968 ppm guanidine), pH 9.7, 2. inoculation, 7 d): 0/0 | Bacterial growth after inoculation (Paint 1, +0.3% guanidine carbonate (1968 ppm guanidine), pH 9.7, 2. inoculation, 14 d): 0/0 | Bacterial growth after inoculation (Paint 1, +0.3% guanidine carbonate (1968 ppm guanidine), pH 9.7, 3. inoculation, 7 d): 0/0 | Bacterial growth after inoculation (Paint 1, +0.3% guanidine carbonate (1968 ppm guanidine), pH 9.7, 3. inoculation, 14 d): 0/0 | Bacterial growth after inoculation (Paint 1, +0.4% guanidine carbonate (2624 ppm guanidine), pH 9.9, 1. inoculation, 7 d): 0/0 | Bacterial growth after inoculation (Paint 1, +0.4% guanidine carbonate (2624 ppm guanidine), pH 9.9, 1. inoculation, 14 d): 0/0 | Bacterial growth after inoculation (Paint 1, +0.4% guanidine carbonate (2624 ppm guanidine), pH 9.9, 2. inoculation, 7 d): 0/0 | Bacterial growth after inoculation (Paint 1, +0.4% guanidine carbonate (2624 ppm guanidine), pH 9.9, 2. inoculation, 14 d): 0/0 | Bacterial growth after inoculation (Paint 1, +0.4% guanidine carbonate (2624 ppm guanidine), pH 9.9, 3. inoculation, 7 d): 0/0 | Bacterial growth after inoculation (Paint 1, +0.4% guanidine carbonate (2624 ppm guanidine), pH 9.9, 3. inoculation, 14 d): 0/0 | Bacterial growth after inoculation (Paint 1, +0.5% guanidine carbonate (3280 ppm guanidine), pH 10.1, 1. inoculation, 7 d): 0/0 | Bacterial growth after inoculation (Paint 1, +0.5% guanidine carbonate (3280 ppm guanidine), pH 10.1, 1. inoculation, 14 d): 0/0 | Bacterial growth after inoculation (Paint 1, +0.5% guanidine carbonate (3280 ppm guanidine), pH 10.1, 2. inoculation, 7 d): 0/0 | Bacterial growth after inoculation (Paint 1, +0.5% guanidine carbonate (3280 ppm guanidine), pH 10.1, 2. inoculation, 14 d): 0/0 | Bacterial growth after inoculation (Paint 1, +0.5% guanidine carbonate (3280 ppm guanidine), pH 10.1, 3. inoculation, 7 d): 0/0 | Bacterial growth after inoculation (Paint 1, +0.5% guanidine carbonate (3280 ppm guanidine), pH 10.1, 3. inoculation, 14 d): 0/0 | Bacterial growth after inoculation (Paint 1, +1.0% guanidine carbonate (6560 ppm guanidine), pH 10.4, 1. inoculation, 7 d): 0/0 | Bacterial growth after inoculation (Paint 1, +1.0% guanidine carbonate (6560 ppm guanidine), pH 10.4, 1. inoculation, 14 d): 0/0 | Bacterial growth after inoculation (Paint 1, +1.0% guanidine carbonate (6560 ppm guanidine), pH 10.4, 2. inoculation, 7 d): 0/0 | Bacterial growth after inoculation (Paint 1, +1.0% guanidine carbonate (6560 ppm guanidine), pH 10.4, 2. inoculation, 14 d): 0/0 | Bacterial growth after inoculation (Paint 1, +1.0% guanidine carbonate (6560 ppm guanidine), pH 10.4, 3. inoculation, 7 d): 0/0 | Bacterial growth after inoculation (Paint 1, +1.0% guanidine carbonate (6560 ppm guanidine), pH 10.4, 3. inoculation, 14 d): 0/0 | Bacterial growth after inoculation (Paint 2, +0.1% guanidine carbonate (656 ppm guanidine), pH 8.9, 1. inoculation, 7 d): 2 (Light growth, maximum 100 colonies) | Bacterial growth after inoculation (Paint 2, +0.1% guanidine carbonate (656 ppm guanidine), pH 8.9, 1. inoculation, 14 d): 0 | Bacterial growth after inoculation (Paint 2, +0.1% guanidine carbonate (656 ppm guanidine), pH 8.9, 2. inoculation, 7 d): 6
